Consider 72 compounds from PubChem BioAssay AID179 (DTP/NCI, 2004).

The source made the active and inactive calls.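 The calls were made as follows: active = compounds giving half or more protection of infected cells from virus-caused growth loss, again on retest; inactive = the rest.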 A value given as a limit tells only on which side of the number the result lay.

This experiment deals with CEM cells HIV-1 protection, formazan growth assay. Nature of the experiment: NCI AIDS Antiviral Assay. The note with it: for IC50: measured here: growth of uninfected CEM cells. An outline of the steps: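 Screen of anti-HIV-1 activity in human CEM cells using a formazan-based growth measurement at five drug concentrations. Hits with 50% or greater protection were repeated, and confirmation required reproducible complete protection.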

Regarding `Cc1cc2ccccc2c[n+]1CC(=O)CC([O-])(C(F)(F)F)C(F)(F)F`, the EC50 is greater than 200 µM and the IC50 turned out to be 95.5 µM.
In the same order, the values of `COC(=O)C(Cc1ccccc1)OC(=O)C(N)CC(=O)O` (stereo not drawn) are greater than 200 µM and greater than 200 µM.
Turning to `CC(=O)Nn1c(Cc2ccc(Cl)cc2)nn(C)c1=O`, the outcome was inactive.
`CCN1C(=O)c2cc(OC)c(OC)cc2C(=O)C12OC(=O)c1cc3c(cc12)OCO3` (stereo not drawn): the EC50 was greater than 200 µM and the concentration for half-maximal inhibition (IC50) amounted to 93.3 µM.
As for `O=C(c1ccco1)n1c2ccc(Br)cc2c2nc3ccccc3nc21`, the EC50 was greater than 50.1 µM and the IC50 amounted to 22.4 µM.
In the same order, the values of `N#Cc1nn(C(N)=O)c(N)c1C#N` are greater than 200 µM and greater than 200 µM.
On the same counts, the results for `COc1ccc(-c2cc[n+]([O-])c(C)c2C)c(OC)c1OC` are greater than 871 µM and 83.2 µM.
On to `COC(=O)Cc1c([C@@H]2Nc3ccccc3[C@H]2CC(=O)OC)[nH]c2ccccc12`, for which the EC50 is greater than 200 µM and the half-maximal inhibitory concentration (IC50) turned out to be 30.2 µM.
On the same counts, the results for `Cc1ccc2c(c1S)C(=O)c1ccccc1C2=O` are greater than 117 µM and 29.5 µM.
Regarding `CC(C)(C)/C(CC(=O)CCC(=O)Nc1ccc(Cl)cc1)=N\NC(N)=S`, the result was inactive.
For the compound `COc1ccc2[nH]c3c(c2c1)CCc1c(OC)cccc1-3`, the EC50 was greater than 200 µM and the 50% inhibitory concentration (IC50) stood at 178 µM.
In the case of `CNC(=O)OCc1nc(SC)n(C)c1COC(=O)NC`, the EC50 is greater than 708 µM and the half-inhibitory concentration (IC50) is 309 µM.
Turning to `CC(=O)c1c2c(cc3c1CC1(C3)Cc3cc4c(c(C(C)=O)c3C1)CCC4)CCC2`, the EC50 was greater than 18.6 µM and the IC50 was greater than 18.6 µM.
For `COc1cc(C(C#N)NNc2nc(C)cc(=O)[nH]2)cc(OC)c1OC` (stereo not drawn), the EC50 is greater than 105 µM and the IC50 was greater than 105 µM.
Take `NS(=O)(=O)c1nnc(NC(=O)Nc2ccc(Cl)c(Cl)c2)s1`: the EC50 was greater than 200 µM and the half-maximal inhibitory concentration (IC50) was determined as 26.3 µM.
Regarding `CCN(CC)C(=S)S[Se](SC(=S)N(CC)CC)(SC(=S)N(CC)CC)SC(=S)N(CC)CC`, the EC50 is greater than 200 µM and the concentration for half-maximal inhibition (IC50) was 0.794 µM.
Consider `Oc1ccccc1C=NCCN=Cc1ccccc1O.[CH3][Sn]([CH3])([Cl])[Cl]`, for which the result was inactive.
Consider `CC(=N)N(C)O`, for which the EC50 is greater than 2000 µM and the IC50 was greater than 2000 µM.
Turning to `N/C(=N\N=C\c1c[nH]c2cc(C(F)(F)F)ccc2c1=O)NO`, the EC50 is greater than 200 µM and the IC50 was determined as 89.1 µM.
In the same order, the values of `COc1cc(Nc2nc3ccccc3nc2C(=O)O)cc(OC)c1OC` are greater than 200 µM and 8.91 µM.
For the compound `N#C/C(=C/NC(=S)NCc1ccccc1)C(N)=O`, the EC50 was greater than 200 µM and the IC50 was greater than 200 µM.
Regarding `COC(=O)C(CC(=O)c1cc2c(cc1I)OCO2)Cc1cc(OC)c(OC)c(OC)c1I` (stereo not drawn), the EC50 is greater than 14.8 µM and the IC50 was greater than 14.8 µM.
For the compound `c1ccc(Cc2ccc(SSc3ccc(Cc4ccccc4)cc3)cc2)cc1`, the EC50 is greater than 200 µM and the concentration for half-maximal inhibition (IC50) was determined as 26.9 µM.
For the compound `COC(=O)/C([Se]c1c(C)cc(C)cc1C)=C(\[Se]c1c(C)cc(C)cc1C)C(=O)OC`, the outcome was inactive.
In the case of `CC(C)(CN1CCCCC1)C(=O)/C=C/c1ccc(Cl)cc1`, the EC50 is greater than 36.3 µM and the 50% inhibitory concentration (IC50) came out at 7.94 µM.
As for `O=C1C=Cc2c(-c3ccccc3)oc3cccc1c23`, the result was inactive.
Take `Nc1c(S(=O)(=O)O)[nH]c(=O)[nH]c1=O`: the EC50 was greater than 200 µM and the concentration for half-maximal inhibition (IC50) was greater than 200 µM.
Consider `O=C(NCCOC(=O)OCCNC(=O)NC1CCCCC1)NC1CCCCC1`, for which the EC50 is greater than 200 µM and the IC50 was greater than 200 µM.
For the compound `CC(C)(C)OC(=O)N1CCc2[nH][nH]c(=O)c2C1`, the EC50 was greater than 200 µM and the 50% inhibitory concentration (IC50) is greater than 200 µM.
On to `CC(=O)CC(OC(C)=O)C1=CCC2C(CC1C)OC(=O)C2C` (stereo not drawn), for which the EC50 is greater than 224 µM and the half-inhibitory concentration (IC50) is 39.8 µM.
In the same order, the values of `N#CC1C(=O)Nc2sc(C(=O)c3ccc(Br)cc3)c(N)c2C12CCCCC2` (stereo not drawn) are greater than 200 µM and 11.5 µM.
On the same counts, the results for `CCOC(=O)/C(=C/c1ccco1)C(=O)c1ccccc1` are greater than 132 µM and 77.6 µM.
On to `N#CNC(=NCc1ccccc1)N(Cc1ccccc1)Cc1ccccc1`, for which the EC50 was greater than 14.8 µM and the IC50 is greater than 14.8 µM.
Regarding `CN=C(NC)c1ccc(NC(=O)c2ccc(C(=O)Nc3ccc(C(=NC)NC)c(C)c3)cc2)cc1C`, the result was inactive.
On to `CC1=CC(=C(c2cc(C)c(O)c(C(=O)O)c2)c2cc(C)c(O)c(C(=O)O)c2)C=C(C(=O)O)C1=O`, for which the outcome was inactive.
With `N#Cc1nc(COCCOCc2ccccc2)oc1N`, the EC50 is greater than 110 µM and the 50% inhibitory concentration (IC50) was 107 µM.
Take `CCOC(=O)C(CC(C)C)NC(=O)c1cc(SC#N)c(C)c2c1Nc1c(c(C)c3oc(=O)c(C)nc3c1C(=O)NC(CC(C)C)C(=O)OCC)O2` (stereo not drawn): the EC50 is greater than 5.01 µM and the IC50 is greater than 5.01 µM.
On to `CCOC(=O)C(=Cc1ccc(C#N)cc1)C(=O)OCC`, for which the EC50 was greater than 132 µM and the IC50 stood at 8.91 µM.
On the same counts, the results for `Cc1cccc(-c2nc3ccc([N+](=O)[O-])cc3c(=O)o2)c1` are greater than 200 µM and 30.9 µM.
On the same counts, the results for `C=CCC(NCc1ccccc1)[C@H](OCc1ccccc1)[C@@H]1COC(C)(C)O1` (stereo partly drawn) are greater than 200 µM and greater than 200 µM.
For the compound `CCN(CCCl)c1cc(C[N+](C)(C)[O-])cc(NC(=O)c2ccc(C(=O)Nc3cc(C[N+](C)(C)[O-])cc(N(CC)CCCl)c3)cc2)c1`, the EC50 is greater than 200 µM and the IC50 was found to be 36.3 µM.
Take `Cc1cc(C)c(-c2noc(-c3ccc(Cl)cc3)c2C2=NCCCN2)c(C)c1`: the EC50 is greater than 35.5 µM and the concentration for half-maximal inhibition (IC50) came to 24.5 µM.
`CC1CC[C@]2(C(=O)O)CCC3(COC(=O)/C=C\c4ccc(O)cc4)C(=CCC4[C@@]5(C)CC[C@H](O)C(C)(C)C5CC[C@]43C)[C@@H]2[C@H]1C` (stereo partly drawn): the EC50 is greater than 41.7 µM and the concentration for half-maximal inhibition (IC50) is 11 µM.
On to `Cc1oc(N)c(S(=O)(=O)c2ccc(Cl)cc2)c1C`, for which the EC50 is greater than 200 µM and the half-maximal inhibitory concentration (IC50) worked out at 34.7 µM.
Consider `CS(=O)(=O)OCCN1CCN(C(=O)c2cccc3c(Nc4ccc(S(N)(=O)=O)cc4)c4ccccc4nc23)CC1`, for which the EC50 is greater than 51.3 µM and the concentration for half-maximal inhibition (IC50) was greater than 51.3 µM.
On to `O=C(NC12CC3CC(CC(C3)C1)C2)C(=O)c1c[nH]c2ccc(Br)cc12`, for which the EC50 was greater than 200 µM and the half-maximal inhibitory concentration (IC50) worked out at 25.7 µM.
As for `Clc1ccc(Cl)c(SSc2cc(Cl)ccc2Cl)c1`, the outcome was inactive.
As to `O=c1ccn(C2OC(CO)C(O)C2F)c(=O)n1Cc1ccccc1` (stereo not drawn), the EC50 is greater than 200 µM and the concentration for half-maximal inhibition (IC50) was greater than 200 µM.
As to `O=C1/C(=C/c2ccccc2)CN(C(=O)/C=C/c2ccccc2)C/C1=C\c1ccccc1`, the EC50 was greater than 100 µM and the half-inhibitory concentration (IC50) came out at 14.5 µM.
As for `COc1ccc(/C=C(\C#N)c2cccnc2)cc1OC`, the EC50 is greater than 25.1 µM and the IC50 came out at 23.4 µM.
As for `COc1cccc(/C(C=O)=C(\Cl)c2ccc(OC)c(OC)c2)c1`, the EC50 is greater than 21.9 µM and the IC50 worked out at 11.5 µM.
On the same counts, the results for `NC(=O)CCN(CCC(N)=O)CCC(N)=O` are greater than 200 µM and greater than 200 µM.
On the same counts, the results for `Cc1ccc(C2NC(=S)N3C(c4ccc(C)cc4)NC(=S)N23)cc1` (stereo not drawn) are greater than 200 µM and 3.39 µM.
Take `C=CCN1C(=O)CC(=O)N(NC2=NNC3(C(=O)N2)c2ccccc2-c2ccccc23)C1=S`: the EC50 was greater than 200 µM and the 50% inhibitory concentration (IC50) is 79.4 µM.
For the compound `CN1C(=O)c2ccccc2Sc2ccccc21`, the EC50 was 6.46 µM and the IC50 came out at 115 µM.
On the same counts, the results for `O=[N+]([O-])c1c(Cl)ccc2nsnc12` are greater than 316 µM and 2.04 µM.
For `CC(=O)Nc1cc(C(=O)Nc2cc(C(=O)Nc3cc(C(=O)Nc4cc(C(=O)Nc5cc(C(=O)NCCC(=O)NCCCN(C)C)n(C)c5)n(C)c4)n(C)c3)n(C)c2)n(C)c1`, the EC50 was greater than 174 µM and the IC50 was 26.9 µM.
In the same order, the values of `ClCC1(CCl)COC1` are greater than 1620 µM and greater than 1620 µM.
As to `O=C(CC(C(=O)c1ccco1)c1ccsc1)c1ccco1` (stereo not drawn), the EC50 was greater than 200 µM and the IC50 came out at 107 µM.
Turning to `CC(=O)N(CN1C(=O)CCC1C(=O)O)c1ccc(C)cc1` (stereo not drawn), the result was inactive.
Regarding `CC(C)(C)OC(=O)Cn1ncn(NC(=O)Cc2ccccc2)c1=O`, the EC50 is greater than 200 µM and the half-inhibitory concentration (IC50) is greater than 200 µM.
Turning to `Cc1ccccc1-n1c(C)nc2ccccc2c1=O`, the EC50 was greater than 269 µM and the IC50 is greater than 269 µM.
Turning to `N.N.N.N.[Cl-].[Co+3].[N-]=[N+]=[N-].[N-]=[N+]=[N-]`, the outcome was inactive.
As to `N#C/C(=C\NC(=S)N=Nc1c(O)[nH]c2ccccc12)C(=O)c1ccc2ccccc2c1`, the EC50 was greater than 200 µM and the IC50 was 120 µM.
On the same counts, the results for `Cn1cnc([N+](=O)[O-])c1Sc1ccccc1C(=O)O` are greater than 339 µM and greater than 339 µM.
Take `C[C@]12CC[C@H](O)CC1CC[C@@H]1C2CC[C@]2(C)NC(=O)CCC12` (stereo partly drawn): the result was inactive.
On to `Clc1cccc(Cl)c1C1ON=C(c2ccccc2)N1C12CC3CC(CC(C3)C1)C2` (stereo not drawn), for which the EC50 was greater than 100 µM and the half-inhibitory concentration (IC50) turned out to be 14.5 µM.
Take `COc1ccc(-c2cc(-c3ccccc3)c3c(n2)-c2ccccc2NC(=O)C3)cc1`: the EC50 is greater than 200 µM and the concentration for half-maximal inhibition (IC50) came out at 38 µM.
On to `C/C(=N\N=C(N)N)C(CN1CCCCC1)C(c1ccccc1)c1c(O)c2ccccc2oc1=O` (stereo not drawn), for which the EC50 is greater than 52.5 µM and the concentration for half-maximal inhibition (IC50) was greater than 52.5 µM.
For the compound `O=CC1=C(C(=O)OC(c2ccccc2)c2ccccc2)N2C(=O)[C@@H](NC(=O)Cc3cccs3)[C@H]2SC1`, the EC50 is greater than 200 µM and the IC50 amounted to 123 µM.
Take `C/C(CC(=O)CCCC(=O)Nc1ccc(Cl)cc1Cl)=N/NC(=O)CC#N`: the EC50 was greater than 18.2 µM and the IC50 was greater than 18.2 µM.
On to `S=c1oc(CCCCCCCCc2nn(CNc3ccccc3)c(=S)o2)nn1CNc1ccccc1`, for which the EC50 is greater than 200 µM and the half-maximal inhibitory concentration (IC50) is greater than 200 µM.
